Reference: patent publication US5629430A, “Trifluoromethylpyrroloindolecarboxylic acid ester and process for production thereof” (Kyorin Pharmaceutical Co., Ltd., priority 1992, dated 1997)
Converted amounts (≈) assume the structure as drawn. Read-outs that look alike come from different tables or passages of the source.

Legend:
[1] = tested on: P388 mouse leukemia cells; experiment: Activity against tumor cell growth (P388, MTT, 72 h); type: cell-based; conditions: read-out: IC50 (50% growth inhibition concentration)
Method in brief: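 P388 cells at 1.5×10^5 cells/ml in RPMI1640 with 10% FBS, 2 mM glutamine and 5 μM 2-hydroxyethyldisulfide; DMSO-dissolved compound diluted in medium, 72 h at 37 °C, 5% CO2. MTT added for 3 h, formazan dissolved in HCl-isopropanol, A540 read. IC50 from absorbance ratio versus untreated cells.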

P388 cells = experiment: Antineoplastic activity, mice having P388 cells transplanted in abdominal cavity; type: in vivo, mouse (female, CDF1 strain); conditions: next day after transplantation, >=130% effective
Procedure: (§1) The test compound was dissolved in dimethylsulfoxide, and the solution was adequately diluted with 10% Emulfore EL620(produced by Rhone Poulenc Co.) to prepare the test compound solution. The antineoplastic activity was evaluated as below.
To the abdominal cavity of a female mouse (CDF1 strain, 8 to 9 week age), 1×10^6 P388 cells were transplanted. Next day, the test medicine solution was injected intraperitonealy in a single dose. Five to eight mice were employed for the solvent-dosed control group, and two mice were employed for each of the dosed groups. The antineoplastic effect was evaluated by the ratio (T/C, %) of the average survival days of the dosed group (T) to the average survival days of the solvent-dosed control group(C). The T/C ratio of 130% or more is evaluated to be effective.
"Cured": Survived for 60 days or longer

Sarcoma-180 cells = experiment: Antineoplastic activity, mice having Sarcoma-180 cells transplanted subcutaneously; type: in vivo, mouse (female, CDR strain); conditions: Mus musculus, Sarcoma-180, iv, 144 h, tumor weighed six days after dosage, read-out: T/C (average tumor weight, dosed vs. solvent-dosed control); for response vs control in vivo at 0.5 mg/kg: i.v. 0.5 mg/kg single dose; for response vs control in vivo at 0.25 mg/kg: i.v. 0.25 mg/kg single dose
Procedure: as §1
To the lateral region of a female mouse (CDR strain, 5 to 6 week age), 3.6×10^6 to 5×10^6 Sarcoma-180 cells were transplanted subcutaneously. Next day, the test medicine solution was injected into the tail vein in a single dose. Eight to twelve mice were employed for the solvent-dosed control group, and five mice were employed for the dosed group. Six days after the dosage, the tumor was cut out, and the weight thereof was measured. The antineoplastic effect was evaluated by the ratio (T/C) of the average tumor weight of the dosed group (T) to the average tumor weight of the solvent-dosed control group (C).

Colon-26 cells = experiment: Antineoplastic activity, mice having Colon-26 cells transplanted subcutaneously; type: in vivo, mouse (female, CDF1 strain); conditions: Mus musculus, Colon 26, iv, 168 h, read-out: T/C (average tumor weight, dosed vs. solvent-dosed control); for response vs control in vivo at 0.5 mg/kg: i.v. 0.5 mg/kg single dose on sixth day
Procedure: as §1
To the lateral region of a female mouse (CDF1 strain, 8 to 12 week age), 1×10^6 Colon-26 cells were transplanted subcutaneously. On the sixth day after the transplantation, the test medicine solution-was injected into the tail vein in a single dose. Seven to twelve mice were employed for the solvent-dosed control group, and five mice were employed for the dosed group. One week after the dosage, the tumor was cut out, and the weight thereof was measured. The antineoplastic effect was evaluated by the ratio (T/C) of the average tumor weight of the dosed group (T) to the average tumor weight of the solvent-dosed control group (C).

[2] = P388 mouse leukemia cells, 72 h, 37° C., MTT
[3] = tumor weighed one week after dosage
[4] = i.v. 0.25 mg/kg single dose on sixth day, tumor weighed one week after dosage

## COC(=O)c1c(C(F)(F)F)[nH]c2c(O)cc3c(c12)C(CCl)CN3C(=O)c1cc2cc(OC)c(OC)c(OC)c2[nH]1 (stereo not shown) [Example 6, methyl 1-chloromethyl-5-hydroxy-7-trifluoromethyl-3-(5,6,7-trimethoxy-1H-indol-2-ylcarbonyl)-1,2,3,6-tetrahydropyrrolo[3,2-e]indole-8-carboxylate]
[1]; [2]
  IC50: 0.24 ng/mL (≈ 0.412 nM)
P388 cells; i.p. 0.5 mg/kg single dose
  T/C (average survival days, dosed vs. solvent-dosed control): 206%

## COC(=O)c1c(C(F)(F)F)[nH]c2c(O)cc3c(c12)C(CCl)CN3C(=O)c1cc2cc(OC)ccc2[nH]1 (stereo not shown) [Example 8, Methyl 1-chloromethyl-5-hydroxy-3-(5-methoxy-1H-indol-2-ylcarbonyl)-7-trifluoromethyl-1,2,3,6-tetrahydropyrrolo[3,2-e]indole-8-carboxylate]
[1]; [2]
  IC50: 0.21 ng/mL (≈ 0.402 nM)
P388 cells; i.p. 1.0 mg/kg single dose
  T/C (average survival days, dosed vs. solvent-dosed control): 198%

## COC(=O)c1c(C(F)(F)F)[nH]c2c(O)cc3c(c12)C(CCl)CN3C(=O)c1cc2cc(NC(=O)c3cc4ccccc4o3)ccc2[nH]1 (stereo not shown) [Example 10, Methyl 3-[5-[(benzofuran-2-ylcarbonyl)amino]-1H-indol-2-ylcarbonyl]-1-chloromethyl-5-hydroxy-7-trifluoromethyl-1,2,3,6-tetrahydropyrrolo[3,2-e]indole-8-carboxylate]
[1]; [2]
  IC50: 0.52 ng/mL (≈ 0.799 nM)
Sarcoma-180 cells
  response vs control in vivo at 0.5 mg/kg: 15%
Colon-26 cells; [3]
  response vs control in vivo at 0.5 mg/kg: 15%

## COC(=O)c1c(C(F)(F)F)[nH]c2c(O)cc3c(c12)C(CCl)CN3C(=O)c1cc2cc(-c3cc4ccccc4o3)ccc2[nH]1 (stereo not shown) [Example 12]
Sarcoma-180 cells; i.v. 1.0 mg/kg single dose
  response vs control in vivo at 1 mg/kg: 11%
Colon-26 cells; i.v. 1.0 mg/kg single dose on sixth day, tumor weighed one week after dosage
  response vs control in vivo at 1 mg/kg: 16%

## COC(=O)c1c(C(F)(F)F)[nH]c2c(O)cc3c(c12)C(CCl)CN3C(=O)c1cc2cc(NC(=O)c3cc4cc(OC)c(OC)c(OC)c4[nH]3)ccc2[nH]1 (stereo not shown) [Example 13, Methyl 1-chloromethyl-5-hydroxy-7-trifluoromethyl-3-[5-[(5,6,7-trimethoxy-1H-indol-2-ylcarbonyl)amino]-1H-indol-2-ylcarbonyl]-1,2,3,6-tetrahydropyrrolo[3,2-e]indole-8-carboxylate]
[1]; [2]
  IC50: 0.21 ng/mL (≈ 0.284 nM)
Sarcoma-180 cells
  response vs control in vivo at 0.25 mg/kg: 11%
Colon-26 cells; [4]
  response vs control in vivo at 0.25 mg/kg: 17%

## COC(=O)c1c(C(F)(F)F)[nH]c2c(O)cc3c(c12)C(CCl)CN3C(=O)c1cc2cc(NC(=O)c3cc4c(OC)c(OC)c(OC)cc4[nH]3)ccc2[nH]1 (stereo not shown) [Example 14, Methyl 1-chloromethyl-5-hydroxy-7-trifluoromethyl-3-[5-[(4,5,6-trimethoxy1H-indol-2-ylcarbonyl)amino]-1H-indol-2-ylcarbonyl]-1,2,3,6-tetrahydropyrrolo[3,2-e]indole-8-carboxylate]
[1]; [2]
  IC50: 0.1 ng/mL (≈ 0.135 nM)
Sarcoma-180 cells
  response vs control in vivo at 0.5 mg/kg: 7%
Colon-26 cells; [3]
  response vs control in vivo at 0.5 mg/kg: 5%

## COC(=O)c1c(C(F)(F)F)[nH]c2c(O)cc3c(c12)C(CCl)CN3C(=O)c1cc2cc(NC(=O)c3cnc4ccccc4c3)ccc2[nH]1 (stereo not shown) [Example 16, Methyl 1-chloromethyl-5-hydroxy-3-[5-[(quinoline-3-ylcarbonyl)amino]-1H-indol-2-ylcarbonyl]-7-trifluoromethyl-1,2,3,6-tetrahydropyrrolo[3,2-e]indole-8-carboxylate]
[1]; [2]
  IC50: 0.16 ng/mL (≈ 0.242 nM)
Sarcoma-180 cells
  response vs control in vivo at 0.5 mg/kg: 17%
Colon-26 cells; [3]
  response vs control in vivo at 0.5 mg/kg: 16%

## COC(=O)c1c(C(F)(F)F)[nH]c2c(O)cc3c(c12)C(CCl)CN3C(=O)c1cc2cc(NC(=O)c3cc4ccccc4cn3)ccc2[nH]1 (stereo not shown) [Example 17, Methyl 1-chloromethyl-5-hydroxy-3-[5-[(isoquinolin-3-ylcarbonyl)amino]-1H-indol-2-ylcarbonyl]-7trifluoromethyl-1,2,3,6-tetrahydropyrrolo[3,2-e]indole-8-carboxylate]
[1]; [2]
  IC50: 0.09 ng/mL (≈ 0.136 nM)
Sarcoma-180 cells
  response vs control in vivo at 0.25 mg/kg: 25%
Colon-26 cells; [4]
  response vs control in vivo at 0.25 mg/kg: 18%

## COC(=O)c1c(C(F)(F)F)[nH]c2c(O)cc3c(c12)C(CCl)CN3C(=O)c1cc2cc(NC(=O)c3cc4c(OC)c(OC)c(OC)cc4cn3)ccc2[nH]1 (stereo not shown) [Example 18, Methyl 1-chloromethyl-5-hydroxy-7-trifluoromethyl-3-[5-[(5,6,7-trimethoxyisoquinolin-3-ylcarbonyl)amino]-1H-indol-2-ylcarbonyl]-1,2,3,6-tetrahydropyrrolo[3,2-e]indole-8-carboxylate]
[1]; [2]
  IC50: 0.09 ng/mL (≈ 0.12 nM)
Sarcoma-180 cells
  response vs control in vivo at 0.25 mg/kg: 25%
Colon-26 cells; [4]
  response vs control in vivo at 0.25 mg/kg: 7%

## COC(=O)c1c(C(F)(F)F)[nH]c2c1C13CC1CN(C(=O)c1cc4cc(OC)c(OC)c(OC)c4[nH]1)C3=CC2=O (stereo not shown) [Example 20, methyl 6-trifluoromethyl-2-(5,6,7-trimethoxy1H-indol-2-ylcarbonyl)-1,2,8,8a-tetrahydrocyclopropa[c]-pyrrolo[3,2e]indole-4 (5H)-one-7-carboxylate]
[1]; [2]
  IC50: 0.24 ng/mL (≈ 0.44 nM)
P388 cells; i.p. 0.125 mg/kg single dose
  T/C (average survival days, dosed vs. solvent-dosed control): 194%
Sarcoma-180 cells; *(n = 4)
  response vs control in vivo at 0.25 mg/kg: 36%
Colon-26 cells; [4]
  response vs control in vivo at 0.25 mg/kg: 15%

## COC(=O)c1c(C(F)(F)F)[nH]c2c1C13CC1CN(C(=O)c1cc4cc(OC)ccc4[nH]1)C3=CC2=O (stereo not shown) [Example 22, Methyl 2-(5-methoxy-1H-indol-2-ylcarbonyl)-6-trifluoromethyl-1,2,8,8a-tetrahydrocyclopropa[c]pyrrolo[3,2-e]indole-4 (5H)-one-7-carboxylate]
[1]; [2]
  IC50: 0.23 ng/mL (≈ 0.474 nM)
P388 cells; i.p. 0.125 mg/kg single dose
  T/C (average survival days, dosed vs. solvent-dosed control): 169%

## COC(=O)c1c(C(F)(F)F)[nH]c2c(O)cc3c(c12)C(CBr)CN3C(=O)c1cc2cc(OC)c(OC)c(OC)c2[nH]1 (stereo not shown) [Example 34, methyl 1-bromomethyl-5-hydroxy-7-trifluoromethyl-3-(5,6,7-trimethoxy-1H-indol-2-ylcarbonyl)-1,2,3,6-tetrahydropyrrolo[3,2e]indole-8-carboxylate]
[1]; [2]
  IC50: 0.15 ng/mL (≈ 0.239 nM)
P388 cells; i.p. 0.125 mg/kg single dose
  T/C (average survival days, dosed vs. solvent-dosed control): 189%
Sarcoma-180 cells
  response vs control in vivo at 0.25 mg/kg: 37%

## COC(=O)c1c(C(F)(F)F)[nH]c2c(O)cc3c(c12)C(CBr)CN3C(=O)c1cc2cc(NC(=O)c3cc4ccccc4[nH]3)ccc2[nH]1 (stereo not shown) [Example 36, Methyl 1-bromomethyl-5-hydroxy-3-[5-[(1H-indol-2-ylcarbonyl)amino]-1H-indol-2-ylcarbonyl)-7-trifluoromethyl-1,2,3,6-tetrahydropyrrolo[3,2-e]indole-8-carboxylate]
[1]; [2]
  IC50: 1.3 ng/mL (≈ 1.87 nM)
P388 cells; i.p. 0.125 mg/kg single dose
  T/C (average survival days, dosed vs. solvent-dosed control): 384%
Sarcoma-180 cells
  response vs control in vivo at 0.25 mg/kg: 14%

## COC(=O)c1c(C(F)(F)F)[nH]c2c(OC(=O)N3CCN(C)CC3)cc3c(c12)C(CCl)CN3C(=O)c1cc2cc(OC)c(OC)c(OC)c2[nH]1 (stereo not shown) [Example 46]
[1]; Mus musculus, P388, 72 h
  IC50: 22 ng/mL (≈ 31.1 nM)
P388 cells; i.p. 4 mg/kg single dose
  T/C (average survival days, dosed vs. solvent-dosed control): 221%

## COC(=O)c1c(C(F)(F)F)[nH]c2c(OC(=O)N3CCN(C)CC3)cc3c(c12)[C@H](CCl)CN3C(=O)c1cc2cc(NC(=O)Nc3ccc4[nH]c(C(=O)N5C[C@@H](CCl)c6c5cc(OC(=O)N5CCN(C)CC5)c5[nH]c(C(F)(F)F)c(C(=O)OC)c65)cc4c3)ccc2[nH]1 [Example 109, (S,S)-3-3'-[Carbonylbis(imino-1H-indol-5,2-dicarbonyl)]bis-[1-chloromethyl-5-(4-methylpiperazin-1-ylcarbonyl)oxy-7-trifluoromethyl-1,2,3,6-tetrahydropyrrolo[3,2-e]indole-8-carboxylic acid methyl ester]]
[1]; Mus musculus, P388, 72 h
  IC50: 53 ng/mL (≈ 41 nM)
Colon-26 cells
  response vs control in vivo at 0.25 mg/kg: 7%
